# Test results from patent US12133855B2, “Lipid-like nanocomplexes and uses thereof” (Trustees of Tufts College, priority 2018, dated 2024).
# Legend:
# [1] = tested on: HeLa-DsRed cells; assay: Cre-mediated gene recombination (DsRed expression) after (−30)GFP-Cre/LNP delivery; type: cell-based; conditions: 24 h; 25 nM (−30)GFP-Cre; lipidoid 3.3 mg/L
# Experimental: (§1) The final (−30)GFP-Cre protein concentration is 25 nM, and lipidoid concentration is 3.3 mg/L. For the gene recombination functional study, HeLa-DsRed cells were treated with same conditions and the red fluorescence emission from DsRed was analyzed by flow cytometry 24 h after delivery.
# The top 12 of LNPs identified through intracellular delivery screening experiments were further tested for gene recombination using HeLa-DsRed model cells. The expression of DsRed from Cre protein mediated gene recombination was analyzed after 24 h of co-incubation with free (−30)GFP-Cre protein and protein loaded LNPs. […] Most of the test LNPs, on the other hand, efficiently delivered (−30)GFP-Cre protein and induced gene recombination, with 14-46% of the cells positive for DsRed.
# [2] = tested on: HeLa-DsRed cells; assay: Intracellular delivery of (−30)GFP-Cre/LNP (GFP-positive cells); type: cell-based; conditions: flow cytometry, 6 h; 25 nM (−30)GFP-Cre; lipidoid 3.3 mg/L
# Experimental: as §1
# A Cre recombinase protein fused to a negatively supercharged GFP variant ((−30)GFP-Cre) was used as a model cargo protein. The (−30)GFP-Cre protein was able to complex with cationic LNPs through electrostatic attraction and other types supramolecular interactions. The cellular uptake of LNPs could be determined by direct analysis of intracellular GFP fluorescent intensity as reported in Wang. HeLa-DsRed cells were used in this study, which expressed red fluorescent DsRed upon Cre-mediated recombination to facilitate the functional study of delivered proteins in the following study.
# The (−30)GFP-Cre protein loaded LNPs (GFP-Cre/LNPs) were prepared at first by simply mixing precalculated amount of aqueous solution of LNPs and protein at ambient conditions. For the intracellular delivery, after incubation with GFP-Cre/LNPs nanoparticles for 6 h, the GFP-positive cells were observed using fluorescence microscopy, harvested and counted by flow cytometry. […] The intracellular (−30)GFP-Cre protein delivery efficiencies were further quantified by flow cytometry.
# [3] = Thiol-triggered size variation of OCholB LNPs (DTT, cysteine; DLS); type: physicochemical; conditions: 10 mM DTT, 24 h
# Text: The thiol-trigged degradation and dissociation of the OCholB LNPs were studied by time-dependent DLS measurements and TEM observation. […] The disruption of the vesicle structure is considered to be resulted from the thiol-exchange and disulfide bond cleavage reactions of OCholB lipidoids. We next investigated whether the thiol-containing molecules (e.g. albumin, cysteine, homocysteine, cysteinylglycine, etc.) in the serum may induce the structural disintegration of these disulfide bond-containing LNPs. The stabilities of LNPs in the presence of 20 μM of L-cysteine (Cys), which mimics the free thiols on the small- and macromolecules presented in the serum, were examined. […] While the degrees of size changes vary between lipidoids with different amine head groups, all lipidoids were more responsive to DTT (modeling intracellular conditions) than to Cysteine (modeling conditions in the blood serum).
# [4] = tested on: HeLa-DsRed cells; assay: Genome editing efficiency of (−30)GFP-Cre/OCholB LNPs (DsRed+ cells); type: cell-based; conditions: (−30)GFP-Cre 25, 50 and 100 nM
# Text: In this context, the internalization mechanism of the (−30)GFP-Cre/LNPs complexes was studied at first, by introducing different endocytosis inhibitors, i.e., sucrose (clathrin-mediated endocytosis inhibitor), methyl-β-cyclodextrin (M-β-CD, cholesterol-depleting agent), dynasore (dynamin II inhibitor) and nystatin (caveolin-mediated endocytosis inhibitor), following our previously reported procedures. […] Comparing to other combinatorial library studies, it is clear that even loaded with same cargoes and tested against same cell line, different lipidoids with different chemical structures could be internalized through very distinct pathways. Next, the genome-editing efficiencies of (−30)GFP-Cre/LNPs were determined by flow cytometry after 24 h of incubation (with 8 h of (−30)GFP-Cre/LNPs complex exposure). Three different concentrations of protein/lipidoid complexes (25 nM/1.7 μg mL^−1, 50 nM/3.4 μg mL^−1, and 100 nM/6.6 μg mL^−1) were tested for each lipidoid nanoparticle. […] For example, the DsRed^+ cells were recorded as 10.5%/24.9%/88.9%, 13.5%/55.4%/88.8%, and 27.7%/47.8%/94.7% for (−30)GFP-Cre loaded 75-OCholB, 76-OCholB and 77-OCholB, respectively, at the protein concentration of 25, 50 and 100 nM. […] Then, the cytotoxicity profiles of (−30)GFP-Cre/LNPs, (−30)GFP-Cre/Lpf2k and naked (−30)GFP-Cre at different concentrations against HeLa-DsRed cells (8 h of exposure; (−30)GFP-Cre/LNPs=25 nM/1.7 μg mL^−1, 50 nM/3.4 μg mL^−1, and 100 nM/6.6 μg mL^−1) are measured using MTT assay after 24 h of incubation. […] For (−30)GFP-Cre/75-OCholB treated cells, the viabilities were determined to be 95.5%, 91.8% and 83.1%, at the protein concentration of 25, 50 and 100 nM, respectively; the numbers for (−30)GFP-Cre/76-OCholB and (−30)GFP-Cre/77-OCholB are 97.8%/98.2%/97.2 and 100.9%/96.6%/98.6%. […] Meanwhile, the morphology changes of HeLa-DsRed cell treated with different nanoparticle formulations were studied and the results are shown in FIG. 15E. […] Samples found in upper left quadrant are non-toxic and inefficient for delivery; samples in lower left quadrant are toxic and inefficient; samples in lower right quadrant are efficient but toxic; samples in upper right quadrant are non-toxic and efficient, which would be top candidates for further study. It is clear that Lpf2k (shown in dotted purple circle) at high concentration is relatively efficient for genome editing, while also toxic to the target cells. On the other hand, most of the (−30)GFP-Cre loaded OCholB LNPs are almost non-toxic when compared to (−30)GFP-Cre/Lpf2k, similar to naked (−30)GFP-Cre protein. 87-OCholB, 90-OCholB and 304-OCholB (shown in dotted dark blue circle) are less efficient for genome-editing; while high genome editing efficacy and excellent tolerability were achieved by using 75-OCholB, 76-OCholB and 77-OCholB (shown in dotted green circle).
# [5] = tested on: HeLa cells; assay: GFP mRNA delivery (GFP+ cells); type: cell-based; conditions: LNP/mRNA=10/1; [mRNA]=0.86 μg mL^−1; 24 h exposure
# Text: Messenger RNA delivery has great potentials for cancer therapy, protein replacement therapy and neurological disorder treatments.^42 The intracellular delivery of mRNA using OCholB LNPs was studied using GFP mRNA and different cell lines (HeLa, B16F10, HEK-293, NIH/3T3 and Jurkat). The weight ratio of LNP/mRNA was optimized at first using HeLa cells. […] The weight ratio of LNP/mRNA=10/1 was then chose for the following mRNA delivery studies. […] Then the intracellular delivery efficiencies of all fully substituted OCholB LNPs were tested against HeLa cells, and Lpf2k and naked GFP mRNA were used as controls (LNP/mRNA=10/1; [mRNA]=0.86 μg mL^−1; 24 h exposure). […] As to the OCholB LNPs, 75-OCholB (62.0% of GFP^+ cells), 76-OCholB (79.8%), 77-OCholB (73.5%), 78-OCholB (67.1%), 80-OCholB (55.6%), 81-OCholB (51.6%) and 304-OCholB (52.1%) are all determined to be effective. Typical fluorescent images of mRNA/LNPs (mRNA/75-OCholB, mRNA/76-OCholB and mRNA/77-OCholB) treated HeLa cells are shown in FIG. 14C. Comparing to untreated HeLa cells, strong green fluorescent signals were recoded from nanoparticles incubated cells, which is consistent with the flow cytometry data as shown in FIG. 14D. Meanwhile, both 87-OCholB (6.1%) and 90-OCholB (2.5%) are found to be inefficient for GFP mRNA delivery into HeLa cells, which is consistent with the internalization studies using NR (FIG. 12C) and (−30)GFP-Cre protein (FIG. 12F) as the fluorescent reporters.
# [6] = tested on: HeLa cells; assay: Internalization of Nile red loaded nanoparticles (NR+ cells); type: cell-based; conditions: 8 h of exposure
# Experimental: (§2) The internalization kinetics and efficiencies of OCholB LNPs were then studied using NR loaded LNPs and HeLa cells. […] Next, all of the NR delivery efficiencies of eight OCholB LNPs were determined after 8 h of exposure. […] Representative fluorescent images of NR/LNPs (NR/75-OCholB, NR/76-OCholB and NR/77-OCholB) treated HeLa cells are shown in FIG. 12D, from which it is easily observed that NR was delivered into the cells and mainly distributed in cytoplasm, by OCholB LNPs. Next, the internalization of negatively charged hydrophilic fluorescent dye, calcein, was studied. […] Next, the use of OCholB LNPs for the intracellular delivery of macromolecular cargo was explored, using fluorescent recombinant (−30)GFP-Cre protein and HeLa-DsRed cells as the model system. […] Delivery efficiency was tested at a range of (−30)GFP-Cre protein concentrations (25, 50 and 100 nM), with a consistent lipid/protein ratio (i.e., delivery with the final lipid concentration of 1.7, 3.3, and 6.6 μg mL^−1 respectively). 33.2%, 43.8% and 74% of GFP positive (GFP^+) cells were recorded for (−30)GFP-Cre/Lpf2k treated cells with the concentration of (−30)GFP-Cre 25 nM, 50 nM and 100 nM, respectively. […] The typical flow cytometry profiles of naked (−30)GFP-Cre protein and (−30)GFP-Cre loaded nanoparticles ((−30)GFP-Cre/75-OCholB, (−30)GFP-Cre/76-OCholB, (−30)GFP-Cre/77-OCholB and (−30)GFP-Cre/Lpf2k) treated HeLa-DsRed cells were shown in and FIG. 12H ([lipidoid]=6.6 μg mL^−1 and [(−30)GFP-Cre]=100 nM), which is consistent with the statistical results shown in FIG. 12G. Furthermore, the representative fluorescent images from the protein and protein/nanoparticle treated HeLa-DsRed cells are also shown in FIG. 12I.
# [7] = tested on: HeLa-DsRed cells; type: cell-based; conditions: (−30)GFP-Cre 25, 50 and 100 nM
# Experimental: as §2
SMILES,cells positive for DsRed (protein transfection efficiency) [1],GFP-positive cells [2],increase in averaged hydrodynamic diameter [3],"genome editing efficacy (DsRed^+ cells), overall [4]",GFP^+ cells [5],NR^+ cells [6],"(−30)GFP-Cre delivery efficiency (GFP^+ cells), overall [7]"
CCCCCCCCCCCCCCSCCOC(=O)CCN(CCC(=O)OCCSCCCCCCCCCCCCCC)CCC1CCCN1C (stereo not drawn) [Lipidoid 77-O17S],38.6%,,,,,,
CCCCCCCCCCCCCC[Se]CCOC(=O)CCN(CCC(=O)OCC[Se]CCCCCCCCCCCCCC)CCC1CCCN1C (stereo not drawn) [Lipidoid 77-O17Se],31.0%,37%,,,,,
CCCCCCCCCCCCCC[Se]CCOC(=O)CCN(CCC(=O)OCC[Se]CCCCCCCCCCCCCC)CCN(C)C [Lipidoid 78-O17Se],37.8%,,,,,,
CCCCCCCCCCCCCCSCCOC(=O)CCN(CCCN(C)C)CCC(=O)OCCSCCCCCCCCCCCCCC [Lipidoid 80-O17S],45.6%,,,,,,
CC(C)CCCC(C)C1CCC2C3CC=C4CC(OC(=O)NCCSSCCOC(=O)CCN(CCCN(CCO)CCO)CCC(=O)OCCSSCCNC(=O)OC5CCC6(C)C(=CCC7C6CCC6(C)C(C(C)CCCC(C)C)CCC76)C5)CCC4(C)C3CCC12C (stereo not drawn) [Lipidoid 87-OCholB],,,210.3%,less efficient at delivery,6.1%,"lowest transfection efficacy, comparable to the untreated control group",lowest delivery efficiencies
CC(C)CCCC(C)C1CCC2C3CC=C4CC(OC(=O)NCCSSCCOC(=O)CCN(CCC(=O)OCCSSCCNC(=O)OC5CCC6(C)C(=CCC7C6CCC6(C)C(C(C)CCCC(C)C)CCC76)C5)CCN5CCOCC5)CCC4(C)C3CCC12C (stereo not drawn) [Lipidoid 90-OCholB],,,179.5%,less efficient at delivery,2.5%,12.9%,lowest delivery efficiencies
